Assay: Solubility in water
Assay type: physicochemical
Details: water at 20° C.

In the case of `CN/C(=N\[N+](=O)[O-])NCc1cnc(Cl)s1` [compound (II)], the solubility is reported as at most 300 µg/mL.

Reference: patent US20010014347A1, “WETTABLE OR WATER-SOLUBLE GRANULAR AGROCHEMICAL COMPOSITION” (priority 1997, published 2001)
